Measured values published in patent publication US9434739B2, “Systemic insecticide” (priority 2007, dated 2016).

Tests used:
Aphis gossypii = test: Soil drenching with single agent and admixture on cucumber against Aphis gossypii (Test Example 8); assay type: in vivo; conditions: for Preventive value: 2 days after release
Protocol: Cucumber seedlings were treated by soil drenching with a single agent and an admixture adjusted to a predetermined concentration with water. The chemical was absorbed through the root for two days, and four adults of Aphis gossypii for each seedling were released on the seedlings. Thereafter, the seedlings were allowed to stand in a thermostatic chamber of 25° C. 2 days after the release, the number of parasites on the leaves was observed. The density index in each treated plot was determined by presuming the density in the non-treated plot to be 100. The preventive value was calculated by the following equation. Preventive value=100−density index
(§1) When the density index exceeded 100, the preventive value was regarded as 0 (zero).
(§2) Theoretical value=A+B−(A×B)/100 Colby's formula
(§3) where A: preventive value when treatment was performed only with compound 4, and
B: preventive value when treatment was performed only with each of acephate and imidacloprid.
When the numerical value for the admixture in Table 10 exceeded the theoretical value calculated by the Colby's formula shown in Table 11, the admixture was determined to have a synergistic effect.

Rhopalosiphum padi [1] = test: Root soaking with single agent and admixture on wheat against Rhopalosiphum padi (Test Example 9); assay type: in vivo; conditions: for Preventive value: six days after release
Protocol: The root of wheat seedlings 48 hr after seeding was soaked for 72 hr in an admixture solution, adjusted to a predetermined concentration, as a 10% aqueous acetone solution. 72 hrs after the treatment, 10 larval Rhopalosiphum padi for each seedling were released on the seedlings. Thereafter, the seedlings were allowed to stand in a thermostatic chamber of 25° C. The number of parasites on stems and leaves was observed six days after the release. The density index of each of the treated plots was determined by presuming the density of the non-treated plots to be 100, and the preventive value was calculated by the same equation as in Test Example 8.
as §1, §2, §3
B: preventive value when treatment was performed only with each of acetamiprid, acephate, and imidacloprid.
When the preventive value against Rhopalosiphum padi for the admixture in Table 12 exceeded the theoretical value calculated by the Colby's formula shown in Table 13, the admixture was determined to have a synergistic effect.

Nephotettix cincticeps = test: Soil drenching treatment test on rice seedlings against Nephotettix cincticeps (Test Example 7); assay type: in vivo; conditions: soil drenching of rice pot, 1.0 mg/seedling, second instar larvae, 3 days after release
Protocol: (§4) Rice seedlings grown in a pot were provided. Soil in the pot was drenched with a test solution adjusted to a predetermined concentration with a 10% aqueous acetone solution. After standing for three days, 10 larvae at the second instar were released on the rice seedling. Thereafter, the pot was allowed to stand in a thermostatic chamber of 25° C. (light period 16 hr-dark period 8 hr). 3 days after the release, the number of survived larvae was measured, and the mortality of larvae was calculated by the same equation as in the Reference Test. The test was duplicated.

Rhopalosiphum padi [2] = test: Root soaking treatment test on wheat seedlings against Rhopalosiphum padi (Test Example 3 and Comparative Tests); assay type: in vivo; conditions: wheat seedling root soaked 72 hr in test solution (100 ppm), 20 μg/seedling, 25° C.
Protocol: The root of wheat seedlings 48 hr after seeding was soaked for 72 hr in a test solution (100 ppm) prepared as a 10% aqueous acetone solution. 72 hrs after the treatment, 10 larval Rhopalosiphum padi were released for each seedling. Thereafter, the seedlings were allowed to stand in a thermostatic chamber of 25° C. The number of parasites on stems and leaves was observed six days after the release, and the density index was calculated by the same equation as in Test Example 1. The test was duplicated.
For compounds 8 and 9 described in Table 6, a insecticidal effect against Rhopalosiphum padi was examined in the same manner as in Test Example 3.

Myzus persicae Sulzer = test: Reference Test: cabbage leaf disk spraying treatment against Myzus persicae Sulzer; assay type: in vivo; conditions: 20 ppm test solution spread over cabbage leaf disk, first instar larvae, three days after release, 25° C.
From the text: A leaf disk having a diameter of 2.8 cm was cut out from a cabbage grown in a pot and was placed in a 5.0 cm-Schale. Four adult aphids of Myzus persicae Sulzer were released in the Schale. One day after the release of the adult aphids, the adult aphids were removed. The number of larvae at the first instar born in the leaf disk was adjusted to 10, and 20 ppm of a test solution which had been prepared as a 50% aqueous acetone solution (0.05% Tween 20 added) was spread over the cabbage leaf disk. The cabbage leaf disk was then air dried. Thereafter, the Schale was lidded and was allowed to stand in a thermostatic chamber of 25° C. […] Mortality (%)={number of dead larvae/(number of survived larvae+number of dead larvae)}×100

Laodelphax stratella = test: Soil drenching treatment test on rice seedlings against Laodelphax stratella (Test Example 6); assay type: in vivo; conditions: soil drenching of rice pot, 0.5 mg/seedling, second instar larvae, 3 days after release
Protocol: as §4, with “seedlings.” for “seedling.”

[3] = tested on: Trialeurodes uaporariorum; test: Soil drenching treatment test on cucumber against Trialeurodes uaporariorum (Test Example 5); assay type: in vivo; conditions: soil drenching of cucumber pot, 0.5 mg/seedling, larvae, 9 days after drenching
Protocol: Adults of Trialeurodes uaporariorum were released on cucumber seedlings, grown in a pot, for egg laying purposes for two days. 10 days after the start of egg laying, it was confirmed that larvae were hatched from the delivered eggs. The soil in the cucumber pot was drenched with 5 mL of a test solution adjusted to a predetermined concentration with a 10% aqueous acetone solution. The cucumber pot was allowed to stand in a thermostatic chamber of 25° C. (light period 16 hr-dark period 8 hr). 9 days after the drenching, the number of survived larvae was measured, and the mortality of larvae was calculated by the following equation. The test was duplicated. Mortality (%)={(number of larvae before treatment−number of survived larvae)/number of larvae before treatment}×100

Helicoverpa armiger = conditions: described in WO 2004/060065 and Applied and Environmental Microbiology (1995), 61(12), 4429-35; cited from earlier work
Plutella xylostella = conditions: described in WO 2004/060065 and Applied and Environmental Microbiology (1995), 61(12), 4429-35; cited from earlier work
Tenebrio molitor = conditions: described in WO 2004/060065 and Applied and Environmental Microbiology (1995), 61(12), 4429-35; cited from earlier work
[4] = Compound 4 0 mg/seedling, acephate 0.1 mg/seedling, imidacloprid 0.005 mg/seedling
[5] = Compound 4 0 mg/seedling, other insecticide alone (acephate 0.1 mg/seedling, imidacloprid 0.005 mg/seedling)
[6] = Compound 4 0 μg/seedling, acetamiprid 0.0078, acephate 0.5, imidacloprid 0.0078 μg/seedling
[7] = Compound 4 0 μg/seedling, other insecticide alone (acetamiprid 0.0078, acephate 0.5, imidacloprid 0.0078 μg/seedling)
[8] = Compound 4 0.05 mg/seedling, alone (—) or with acephate 0.1 mg/seedling or imidacloprid 0.005 mg/seedling
[9] = Compound 4 0.5 μg/seedling, alone (—) or with acetamiprid 0.0078, acephate 0.5 or imidacloprid 0.0078 μg/seedling

Compound: COP(=O)(NC(C)=O)SC (centres unmarked) [Acephate, acephate]
- Theoretical value calculated by Colby's formula (Aphis gossypii; [4]): 70
- Preventive value (Aphis gossypii; [5]): 70
- Theoretical value calculated by Colby's formula (Rhopalosiphum padi [1]; [6]): 55.6
- Preventive value (Rhopalosiphum padi [1]; [7]): 55.6

Compound: C/C(=N\C#N)N(C)Cc1ccc(Cl)nc1 [Acetamiprid, acetamiprid]
- Theoretical value calculated by Colby's formula (Rhopalosiphum padi [1]; [6]): 5.9
- Preventive value (Rhopalosiphum padi [1]; [7]): 5.9

Compound: CC1(COC(=O)C2CC2)C2C[C@H](O)[C@@]3(C)Oc4cc(-c5cccnc5)oc(=O)c4[C@H](O)C3[C@@]2(C)CC[C@@H]1OC(=O)C1CC1 (some centres unmarked) [Compound 4]
- Mortality (%) (Nephotettix cincticeps): 60%
- Density index 6 days after release (Rhopalosiphum padi [2]): 5
- Mortality (Myzus persicae Sulzer): 100%
- Theoretical value calculated by Colby's formula (Aphis gossypii; [8]): 0
- Preventive value (Aphis gossypii; [8]): 0
- Mortality (%) (Laodelphax stratella): 34%
- Mortality (%) [3]: 67%
- Theoretical value calculated by Colby's formula (Rhopalosiphum padi [1]; [9]): 0
- Preventive value (Rhopalosiphum padi [1]; [9]): 0

Compound: CC1(COC(=O)C2CC2)C2CC(=O)[C@@]3(C)Oc4cc(-c5cccnc5)oc(=O)c4[C@H](O)C3[C@@]2(C)CC[C@@H]1OC(=O)C1CC1 (some centres unmarked) [Compound 6]
- Density index 6 days after release (Rhopalosiphum padi [2]): 0
- Mortality (Myzus persicae Sulzer): 100%

Compound: CC1(COC(=O)C2CC2)C2CC[C@@]3(C)Oc4cc(-c5cccnc5)oc(=O)c4[C@H](O)C3[C@@]2(C)CC[C@@H]1OC(=O)C1CC1 (some centres unmarked) [Compound 7]
- Density index 6 days after release (Rhopalosiphum padi [2]): 41
- Mortality (Myzus persicae Sulzer): 100%

Compound: O=[N+]([O-])NC1=NCCN1Cc1ccc(Cl)nc1 [Imidacloprid, imidacloprid]
- Theoretical value calculated by Colby's formula (Aphis gossypii; [4]): 16
- Preventive value (Aphis gossypii; [5]): 16
- Theoretical value calculated by Colby's formula (Rhopalosiphum padi [1]; [6]): 28.6
- Preventive value (Rhopalosiphum padi [1]; [7]): 28.6

Compound: pyripyropene A
- insecticidal effect (Helicoverpa armiger): has insecticidal effect
- insecticidal effect (Plutella xylostella): has insecticidal effect
- insecticidal effect (Tenebrio molitor): has insecticidal effect
